In ChEMBL document CHEMBL6109079, “Discovery of novel pyrimidinetrione derivatives as DprE1 inhibitors with potent antimycobacterial activities” (Eur J Med Chem, 2025):
≈ marks a conversion by molar mass, not a printed value.

Experiments:
[1] = Inhibition of DprE1 (unknown origin) preincubated with FAD followed by compound addition and measured after 2 mins by fluorescence based microplate reader; parameters: species or system Bacteria
[2] = system: Mycobacterium tuberculosis; experiment: Antibacterial activity against Mycobacterium tuberculosis H37Ra assessed as inhibition of bacterial growth at 50 uM incubated for 3 weeks by absorbance based microplate reader relative to control; type: functional; conditions: 504 h
[3] = system: Mycobacterium tuberculosis; experiment: Antibacterial activity against Mycobacterium tuberculosis H37Ra assessed as inhibition of bacterial growth incubated for 1 weeks by absorbance based microplate reader; type: functional; conditions: 168 h
[4] = system: Mycobacterium tuberculosis; experiment: Antibacterial activity against Mycobacterium tuberculosis H37Ra assessed as inhibition of bacterial growth at 10 uM incubated for 3 weeks by absorbance based microplate reader relative to control; type: functional; conditions: 504 h
[5] = system: Mycobacterium tuberculosis; experiment: Antibacterial activity against Mycobacterium tuberculosis H37Rv assessed as inhibition of bacterial growth at 10 uM incubated for 3 weeks by absorbance based microplate reader relative to control; type: functional; conditions: 504 h
[6] = Cytotoxicity against human THP-1 cells assessed as cell viability at 200 uM incubated for 24 hrs by CCK-8 assay relative to control; type: toxicity, cell-based; conditions: read-out: Activity
[7] = Cytotoxicity against human THP-1 cells assessed as reduction in cell viability incubated for 24 hrs by CCK-8 assay; type: toxicity, cell-based
[8] = Selectivity index, ratio of CC50 for cytotoxicity against human THP-1 cells to MIC50 for antibacterial activity against Mycobacterium tuberculosis H37Ra; type: toxicity, cell-based; conditions: read-out: Selectivity Index
[9] = system: Mycobacterium tuberculosis; experiment: Antibacterial activity against Mycobacterium tuberculosis H37Ra infected in PMA-differentiated human THP-1 cells assessed as reduction in colony forming units measured after 3 weeks by absorbance based assay; type: functional, organism-based; conditions: dose 10-100 µM
[10] = Binding affinity to recombinant DprE1 (unknown origin) assessed as dissociation constant incubated for 10 mins by MST analysis; parameters: species or system Bacteria
[11] = target: T1, Decaprenylphosphoryl-beta-D-ribose oxidase (Mycobacterium smegmatis (strain ATCC 700084 / mc(2)155), UniProt A0R607); experiment: Binding affinity to full length N-terminal 6his-tagged Mycobacterium smegmatis ATCC 607 DprE1 extracted from Escherichia coli BL21 assessed as dissociation constant incubated for 10 mins; parameters: species or system Mycolicibacterium smegmatis
T1 sequence (A0R607 whole entry): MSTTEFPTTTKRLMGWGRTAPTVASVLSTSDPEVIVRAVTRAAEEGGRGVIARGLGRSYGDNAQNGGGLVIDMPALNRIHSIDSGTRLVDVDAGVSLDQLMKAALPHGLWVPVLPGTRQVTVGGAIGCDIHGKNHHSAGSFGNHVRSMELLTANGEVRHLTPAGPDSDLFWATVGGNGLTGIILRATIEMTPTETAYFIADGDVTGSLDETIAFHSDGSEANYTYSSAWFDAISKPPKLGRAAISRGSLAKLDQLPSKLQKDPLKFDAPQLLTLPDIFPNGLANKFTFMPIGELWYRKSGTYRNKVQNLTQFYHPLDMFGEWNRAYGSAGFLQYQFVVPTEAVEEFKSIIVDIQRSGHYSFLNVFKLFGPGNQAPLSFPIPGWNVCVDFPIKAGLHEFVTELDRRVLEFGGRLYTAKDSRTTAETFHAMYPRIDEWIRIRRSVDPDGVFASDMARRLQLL

Question: Which results are given for `CC(C)N1C(=O)NC(=O)/C(=C\NNC(=O)c2ccncc2)C1=O`?
Answer: IC50 [1]: 47.4 µM; inhibition at 50 µM [2]: 100%; MIC50 [3]: 1.75 µM (≈ 0.555 µg/mL); inhibition at 10 µM [4]: 100%; inhibition at 10 µM [5]: 100%; viability at 24 h, 200 µM [6]: 100%; CC50 at 24 h [7]: > 200 µM; selectivity ratio [8]: > 114

Question: For `CC(=O)NN/C=C1\C(=O)NC(=O)N(Cc2ccccc2)C1=O`, which IC50 [1] is on record?
Answer: The IC50 was over 100 µM.

Question: For `COc1cccc(C(=O)NN/C=C2\C(=O)NC(=O)N(Cc3ccccc3)C2=O)c1`, which IC50 [1] is on record?
Answer: The IC50 was 6.53 µM.

Question: With `O=C1NC(=O)N(Cc2ccccc2)C(=O)/C1=C/NNC(=O)c1ccnc2ccccc12` as the molecule, how does the IC50 [1] read?
Answer: The IC50 was 13.8 µM.

Question: For `O=C1NC(=O)N(C2CC2)C(=O)/C1=C/NNC(=O)c1ccnc2ccccc12`, which IC50 [1] is on record?
Answer: Its IC50 is 14.3 µM.

Question: Which IC50 [1] does the source give for `O=C1NC(=O)N(Cc2ccccc2)C(=O)/C1=C/NNC(=O)c1cccc2ncccc12` here?
Answer: The IC50 was 12.6 µM.

Question: For `CCN1C(=O)NC(=O)/C(=C\NNC(=O)c2ccncc2)C1=O`, which IC50 [1] is on record?
Answer: Its IC50 is 52.3 µM.

Question: What about the inhibition at 50 µM [2] of the same molecule?
Answer: The inhibition at 50 µM was 100%.

Question: What about the MIC50 [3] of the same molecule?
Answer: The MIC50 was 1.36 µM (≈ 0.414 µg/mL).

Question: And the inhibition at 10 µM [4]?
Answer: The inhibition at 10 µM was 100%.

Question: What about the inhibition at 10 µM [5] of the same molecule?
Answer: The inhibition at 10 µM was 100%.

Question: What about the viability at 24 h, 200 µM [6] of the same molecule?
Answer: The viability at 24 h, 200 µM was 100%.

Question: And the CC50 at 24 h [7]?
Answer: Its CC50 at 24 h is over 200 µM.

Question: What about the selectivity ratio [8] of the same molecule?
Answer: The selectivity ratio was over 147.

Question: For `CCOCC(=O)NN/C=C1\C(=O)NC(=O)N(Cc2ccccc2)C1=O`, which IC50 [1] is on record?
Answer: The IC50 was over 100 µM.

Question: For `O=C1NC(=O)N(Cc2ccccc2)C(=O)/C1=C/NNC(=O)c1ccccc1`, which IC50 [1] is on record?
Answer: The IC50 was 7.25 µM.

Question: For `O=C1NC(=O)N(c2ccccc2)C(=O)/C1=C/NNC(=O)c1cccnc1`, which IC50 [1] is on record?
Answer: The IC50 was 32.1 µM.

Question: With `CC(=O)Nc1cccc(C(=O)NN/C=C2\C(=O)NC(=O)N(Cc3ccccc3)C2=O)c1` as the molecule, how does the IC50 [1] read?
Answer: The IC50 was 20.7 µM.

Question: With `O=C1NC(=O)N(C2CCC2)C(=O)/C1=C/NNC(=O)c1ccncc1` as the molecule, how does the IC50 [1] read?
Answer: The IC50 was 18.1 µM.

Question: And the inhibition at 50 µM [2]?
Answer: The inhibition at 50 µM was 100%.

Question: And the MIC50 [3]?
Answer: Its MIC50 is 2.37 µM (≈ 0.782 µg/mL).

Question: What about the inhibition at 10 µM [4] of the same molecule?
Answer: The inhibition at 10 µM was 100%.

Question: And the inhibition at 10 µM [5]?
Answer: The inhibition at 10 µM was 100%.

Question: And the viability at 24 h, 200 µM [6]?
Answer: Its viability at 24 h, 200 µM is 100%.

Question: And the CC50 at 24 h [7]?
Answer: Its CC50 at 24 h is over 200 µM.

Question: And the selectivity ratio [8]?
Answer: The selectivity ratio was over 84.2.

Question: What does the source list for `O=C1NC(=O)N(Cc2ccccc2)C(=O)/C1=C/NNC(=O)c1ccncc1`?
Answer: IC50 [1]: 10.2 µM; inhibition at 50 µM [2]: 100%; MIC50 [3]: 3.15 µM (≈ 1.15 µg/mL); inhibition at 10 µM [4]: 100%; inhibition at 10 µM [5]: 100%; viability at 24 h, 200 µM [6]: 100%; CC50 at 24 h [7]: > 200 µM; selectivity ratio [8]: > 63.5

Question: With `O=C1NC(=O)N(Cc2ccccc2)C(=O)/C1=C/NNC(=O)c1cccc2ccccc12` as the molecule, how does the IC50 [1] read?
Answer: The IC50 was 23.3 µM.

Question: Which IC50 [1] does the source give for `Nc1cccc(C(=O)NN/C=C2\C(=O)NC(=O)N(Cc3ccccc3)C2=O)c1` here?
Answer: Its IC50 is 4.36 µM.

Question: For `CC(=O)Nc1ccc(C(=O)NN/C=C2\C(=O)NC(=O)N(Cc3ccccc3)C2=O)cc1`, which IC50 [1] is on record?
Answer: The IC50 was 27.6 µM.

Question: Which IC50 [1] does the source give for `O=C1NC(=O)N(CCO)C(=O)/C1=C/NNC(=O)c1ccncc1` here?
Answer: Its IC50 is 45.7 µM.

Question: And the inhibition at 50 µM [2]?
Answer: The inhibition at 50 µM was 100%.

Question: What about the MIC50 [3] of the same molecule?
Answer: The MIC50 was 1.2 µM (≈ 0.384 µg/mL).

Question: What about the inhibition at 10 µM [4] of the same molecule?
Answer: Its inhibition at 10 µM is 100%.

Question: And the inhibition at 10 µM [5]?
Answer: Its inhibition at 10 µM is 100%.

Question: And the viability at 24 h, 200 µM [6]?
Answer: The viability at 24 h, 200 µM was 100%.

Question: What about the CC50 at 24 h [7] of the same molecule?
Answer: Its CC50 at 24 h is over 200 µM.

Question: What about the selectivity ratio [8] of the same molecule?
Answer: The selectivity ratio was over 166.

Question: And the Activity [9]?
Answer: Its Activity is “Dose-dependent-effect”.

Question: What about the Kd [10] of the same molecule?
Answer: Its Kd is 0.135 µM.

Question: Which results are given for `O=C1NC(=O)N(C2CCCCC2)C(=O)/C1=C/NNC(=O)c1ccncc1`?
Answer: IC50 [1]: 16.7 µM; inhibition at 50 µM [2]: 100%; MIC50 [3]: 5.34 µM (≈ 1.91 µg/mL); inhibition at 10 µM [4]: 100%; inhibition at 10 µM [5]: 100%; viability at 24 h, 200 µM [6]: 100%; CC50 at 24 h [7]: > 200 µM; selectivity ratio [8]: > 37.5

Question: With `O=C1NC(=O)N(C2CC2)C(=O)/C1=C/NNC(=O)c1cccc2ncccc12` as the molecule, how does the IC50 [1] read?
Answer: The IC50 was 15.2 µM.

Question: For `O=C(CCl)NN/C=C1\C(=O)NC(=O)N(Cc2ccccc2)C1=O`, which IC50 [1] is on record?
Answer: The IC50 was over 100 µM.

Question: Which IC50 [1] does the source give for `COc1ccc(C(=O)NN/C=C2\C(=O)NC(=O)N(Cc3ccccc3)C2=O)cc1` here?
Answer: Its IC50 is 3.03 µM.

Question: Which IC50 [1] does the source give for `C=CCN1C(=O)C(=CNNC(=O)c2ccncc2)C(=O)N(CC=C)C1=O` here?
Answer: Its IC50 is over 100 µM.

Question: And the inhibition at 50 µM [2]?
Answer: The inhibition at 50 µM was 100%.

Question: What about the MIC50 [3] of the same molecule?
Answer: The MIC50 was 2.89 µM (≈ 1.03 µg/mL).

Question: And the inhibition at 10 µM [4]?
Answer: The inhibition at 10 µM was 100%.

Question: And the inhibition at 10 µM [5]?
Answer: Its inhibition at 10 µM is 100%.

Question: And the viability at 24 h, 200 µM [6]?
Answer: Its viability at 24 h, 200 µM is 100%.

Question: What about the CC50 at 24 h [7] of the same molecule?
Answer: Its CC50 at 24 h is over 200 µM.

Question: What about the selectivity ratio [8] of the same molecule?
Answer: The selectivity ratio was over 69.2.

Question: With `C=CCN1C(=O)NC(=O)/C(=C\NNC(=O)c2ccncc2)C1=O` as the molecule, how does the Kd [11] read?
Answer: The Kd was 0.0025 µM.

Question: And the IC50 [1]?
Answer: The IC50 was 54.6 µM.

Question: What about the Kd [10] of the same molecule?
Answer: Its Kd is 0.025 µM.

Question: Which IC50 [1] does the source give for `O=C1NC(=O)N(Cc2ccccc2)C(=O)/C1=C/NNC(=O)c1ccc(Cl)cc1` here?
Answer: The IC50 was 23.9 µM.
